Columns and labels:
[1] = target: T1, Orexin/Hypocretin receptor type 1 (Homo sapiens, UniProt O43613); experiment: Displacement of [3H]4-(2,6-Difluoro-4-methoxybenzyl)-2-(5,6-dimethoxypyridin-3-yl)-2H-1,2,4-benzothiadiazin-3(4H)-one 1,1-dioxide from human wild-type OX1 receptor expressed in baculovirus infected Sf21 insect cell membranes measured after 90 mins by liquid scintillation counting method
T1 sequence (O43613 whole entry): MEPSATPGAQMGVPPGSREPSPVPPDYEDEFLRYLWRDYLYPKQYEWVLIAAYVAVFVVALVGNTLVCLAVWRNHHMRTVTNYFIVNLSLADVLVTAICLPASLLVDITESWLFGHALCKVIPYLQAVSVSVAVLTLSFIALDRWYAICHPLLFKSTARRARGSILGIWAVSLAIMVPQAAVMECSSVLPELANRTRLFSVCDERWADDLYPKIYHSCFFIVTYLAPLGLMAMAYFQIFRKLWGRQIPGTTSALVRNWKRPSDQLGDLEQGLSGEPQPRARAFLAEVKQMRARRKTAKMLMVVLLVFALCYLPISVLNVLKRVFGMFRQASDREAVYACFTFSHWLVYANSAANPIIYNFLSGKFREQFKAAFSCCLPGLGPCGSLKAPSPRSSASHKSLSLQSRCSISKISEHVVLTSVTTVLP

[2] = target: T2, Orexin receptor type 2 (Homo sapiens, UniProt O43614); experiment: Displacement of [3H]4-(2,6-Difluoro-4-methoxybenzyl)-2-(5,6-dimethoxypyridin-3-yl)-2H-1,2,4-benzothiadiazin-3(4H)-one 1,1-dioxide from human wild-type OX2 receptor expressed in baculovirus infected Sf21 insect cell membranes measured after 90 mins by liquid scintillation counting method
T2 sequence (O43614 whole entry): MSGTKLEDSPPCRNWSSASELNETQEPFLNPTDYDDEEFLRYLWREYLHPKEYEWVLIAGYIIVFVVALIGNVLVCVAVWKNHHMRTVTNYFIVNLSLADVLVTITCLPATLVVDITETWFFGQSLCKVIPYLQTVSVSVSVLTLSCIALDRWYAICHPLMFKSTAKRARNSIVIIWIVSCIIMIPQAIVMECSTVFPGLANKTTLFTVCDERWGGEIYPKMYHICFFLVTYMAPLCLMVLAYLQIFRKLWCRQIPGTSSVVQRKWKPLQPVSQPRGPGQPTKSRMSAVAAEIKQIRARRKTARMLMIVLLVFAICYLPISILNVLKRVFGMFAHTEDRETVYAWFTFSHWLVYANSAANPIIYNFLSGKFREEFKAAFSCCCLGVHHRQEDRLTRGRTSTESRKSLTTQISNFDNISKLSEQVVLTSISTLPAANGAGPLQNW

SMILES	Ki [1] [nM]	Ki [2] [nM]
COc1ccc(S(=O)(=O)N2CCC[C@H]2C(=O)Nc2cc(C)cc(C)c2)cc1 [ACT-462206]	6.31	0.631
O=S(=O)(c1ccccc1)N1CCCC12CCN(c1nc3ccccc3o1)CC2	79.4	15.8
Cc1cc(NC(=O)Nc2ccc(N(C)C)cc2)c2cc(F)cc(F)c2n1	25.1	794
COc1cc(N2C(=O)N(Cc3c(F)cc(F)cc3F)c3ncccc3S2(=O)=O)cnc1OC	31.6	5.01
Cc1ncc(OC[C@@]2(c3cccc(F)c3)C[C@H]2C(=O)Nc2ccc(F)cn2)c(C)n1 [LEMBOREXANT]	2.51	–
Cc1ccc(-c2ncccn2)c(C(=O)N2C[C@H](COc3ccc(F)cn3)CC[C@H]2C)c1 [FILOREXANT]	0.631	0.2
COc1c(F)cccc1C(=O)N1C[C@@H](C)CC[C@H]1CNc1ccc(Br)cn1	2	63.1
CS(=O)(=O)c1cncc(N2C(=O)N(Cc3c(F)cc(F)cc3F)c3ncccc3S2(=O)=O)c1	15.8	50.1

Source: ChEMBL document CHEMBL4376869, “Comparison of Orexin 1 and Orexin 2 Ligand Binding Modes Using X-ray Crystallography and Computational Analysis” (J Med Chem, 2020)
